Results published in patent US20250180508A1, “QUANTITATIVE LIPIDOMIC ANALYSIS, METHODS AND USES THEREOF” (McMaster University, priority 2023, published 2025).
Values joined by “and” are separate entries in the source; they are usually repeats but may differ in a detail not shown here. Equal entries are not always repeated. Where two headings read alike, the source gives them in different places.

Columns and labels:
[1] = Pooled sub-group untargeted serum lipid profiling by MSI-NACE-MS, high-dose FO supplementation vs placebo/baseline; settings: pooled serum extracts; for Fold-change (average fold-change in ion response for serum lipid following FO supplementation to baseline): high-dose FO (EPA 3 g/day + DHA 2 g/day) vs baseline, underivatized, negative ion mode; for Change in serum lipid response following FO supplementation (in words): high-dose FO vs baseline/placebo, MSI-NACE-MS positive or negative ion mode
Excerpt: (§1) In the first discovery cohort, fasting serum samples were collected from participants in a randomized, double-blinded, placebo-controlled intervention study that investigated the effects of FO supplementation on attenuating skeletal muscle disuse atrophy following leg immobilization (84). […] Briefly, this study comprised a cohort of healthy young women with a mean age of 22 years (range: 19-31 years) and BMI of 24 kg/m^2 (range: 18-26 kg/m^2) recruited locally from the Hamilton area. All participants received either a high-dose FO (3.0 g EPA and 2.0 g DHA daily; n=9) or a placebo control based on an isoenergetic and volume equivalent sunflower oil (SO) daily (n=9). Repeat fasting serum samples were collected from participants at baseline and after 28, 42 and 56 days of the intervention. All serum samples were then stored frozen at −80° C.
(§2) Fasting serum and plasma samples were subject to a two-step chemical derivatization protocol using 9-fluorenylmethyoxycarbonyl chloride (FMOC) and 3-methyl-1-p-tolyltriazene (FMOC/MTT) as described in example 1. This reaction was introduced as a more convenient alternative to diazomethane to improve separation resolution and ionization efficiency by converting zwitter-ionic PL species that co-migrate close to the electroosmotic flow (EOF) into methylated phosphatidylcholines (PCs) and sphingomyelins (SMs) with a permanent positive charge. Briefly, in a glass sample vial, a 50 μL aliquot of serum/plasma sample was subject to a methyl-tert-butyl ether (MTBE) extraction, where 100 μL of methanol with 0.01% vol of BHT as antioxidant, and PC 16:0[D62] as internal standard were first added, and samples then mixed to induce protein precipitation. Next, 250 μL of MTBE was added and mixed prior to adding 100 μL of deionized water to induce phase separation. Samples were then centrifuged at 4000 g at 4° C. where then 200 μL of the organic layer was transferred into a new glass vial and dried down. Next, 100 μL of 0.85 mmol/L FMOC in chloroform containing PC 18:0[D70] as a second internal standard was added to dried serum/plasma extracts and mixed for 5 min at room temperature before drying down again. Next, 50 μL of MTBE containing 450 mmol/L of MTT was added to the glass vial with the lid sealed with Teflon tape. This vessel was then heated to 60° C. for 60 min.

[2] = Targeted plasma PC analysis by MSI-NACE-MS in placebo-controlled EPA or DHA (~3 g/day) trial over 90 days; type: in vivo, human; settings: change in plasma PC 36:5 + PC 38:6 from baseline, mean ± standard deviation
Excerpt: This study was approved by the Research Ethics Board at the University of Guelph. Participant characteristics (sex, age, BMI etc.) and blood draws for O3I assessment were obtained for all participants (n=83) on study day visits. Purified EPA (KD-PUR EPA700TG) and DHA (KD-PUR DHA700TG) oils, as well as OO, were obtained from KD Pharma (Bexbach, Germany) with EPA and DHA in their triglyceride forms. […] All capsules contained 0.20% vol. tocopherol to prevent oxidation of polyunsaturated lipids. Exclusion criteria included use of FO supplements within the previous 3 months, >2 servings of fish/seafood or other omega-3 FA-rich products per week, prescribed medication use (except oral contraceptives), current smoking and history of cardiovascular disease. Participants were assigned via block randomization with stratification by sex to one of three treatment arms, namely OO supplement (n=27), EPA supplement (n=28) and DHA supplement (n=28). Participants were instructed to maintain regular exercise and dietary habits throughout the study. After overnight fasts, participants were subject to blood sampling at the Human Nutraceutical Research Unit at the University of Guelph before (baseline) and after (endpoint) of the 90-day intervention period. Blood was collected into EDTA-treated vacutainers was used to isolate plasma and erythrocytes. Samples were separated by centrifugation at 700×g at 4° C. for 15 min. […] In this case, the O3I was calculated by taking the sum of EPA and DHA relative to the sum of 15 saturated, monosaturated and polyunsaturated FAs in fasting plasma samples.
(positive ion mode) or FA 14:0[D27]

[3] = Omega-3 index (O3I) from erythrocyte PL FAMEs by GC-FID, EPA or DHA trial; type: in vivo, human; settings: for O3I (Post): 90-day period; for Average O3I status after supplementation: high-dose intake, after 90 days, both sexes
Excerpt: This study was approved by the Research Ethics Board at the University of Guelph. Participant characteristics (sex, age, BMI etc.) and blood draws for O3I assessment were obtained for all participants (n=83) on study day visits. Purified EPA (KD-PUR EPA700TG) and DHA (KD-PUR DHA700TG) oils, as well as OO, were obtained from KD Pharma (Bexbach, Germany) with EPA and DHA in their triglyceride forms. The FA content of these supplements was previously reported to be 75.7%±0.01% for oleic acid (18:1) in the OO supplement, 74.7%±0.09% EPA and 0.55%±0.01% DHA in the EPA supplement, and 72.3%±1.3% DHA and 1.05+0.11% EPA in the DHA supplement (91). All capsules contained 0.20% vol. tocopherol to prevent oxidation of polyunsaturated lipids. Exclusion criteria included use of FO supplements within the previous 3 months, >2 servings of fish/seafood or other omega-3 FA-rich products per week, prescribed medication use (except oral contraceptives), current smoking and history of cardiovascular disease. Participants were assigned via block randomization with stratification by sex to one of three treatment arms, namely OO supplement (n=27), EPA supplement (n=28) and DHA supplement (n=28). Participants were instructed to maintain regular exercise and dietary habits throughout the study. After overnight fasts, participants were subject to blood sampling at the Human Nutraceutical Research Unit at the University of Guelph before (baseline) and after (endpoint) of the 90-day intervention period. Blood was collected into EDTA-treated vacutainers was used to isolate plasma and erythrocytes. Samples were separated by centrifugation at 700×g at 4° C. for 15 min. A similar protocol was performed for FAME analysis from erythrocyte PL extracts following fractionation and saponification using GC-FID with normalization to heptadecanoic acid as internal standard (92). In this case, the O3I was calculated by taking the sum of EPA and DHA relative to the sum of 15 saturated, monosaturated and polyunsaturated FAs in fasting plasma samples.

[4] = in vivo
Excerpt: as §1, §2

[5] = change from baseline, 3.0 g/day, in %
[6] = change in erythrocyte PL membrane derived O3I from baseline, females (F), mean ± standard deviation
[7] = change in erythrocyte PL membrane derived O3I from baseline, males (M), mean ± standard deviation
[8] = difference in O3I status from baseline, similar dose of EPA or DHA

CCCCCCCCCCCC(=O)O [FA 12:0]
Fold-change (average fold-change in ion response for serum lipid following FO supplementation to baseline) [1]: 0.86

CCCCCCCCCCCCCCC(=O)O [FA 15:0]
Fold-change (average fold-change in ion response for serum lipid following FO supplementation to baseline) [1]: 0.85

CC/C=C\C/C=C\C/C=C\C/C=C\C/C=C\CCCC(=O)O [EPA, eicosapentaenoic acid]
Δ(PC 36:5 + PC 38:6) ([2]; females (F)): 33.71 ± 16.15
Δ(PC 36:5 + PC 38:6) ([2]; males (M)): 19.30 ± 14.26
O3I (Post) ([3]; Female, 3.0 g/day): 6.75 ± 1.20
O3I (Post) ([3]; Male, 3.0 g/day): 6.23 ± 1.10
ΔO3I [3, 5]: 2.99 ± 1.19
ΔO3I [3, 6]: 3.14 ± 1.25
ΔO3I [3, 7]: 2.83 ± 1.14
ΔO3I [3, 8]: 2.99 ± 1.19%
Average O3I status after supplementation [3]: 8.30±1.21%
Fold-change (average fold-change in ion response for serum lipid following FO supplementation to baseline) [1]: 4.16
Change in serum lipid response following FO supplementation (in words) [1]: more modest increase

CC/C=C\C/C=C\C/C=C\C/C=C\C/C=C\C/C=C\CCC(=O)O [DHA, docosahexaenoic acid]
Δ(PC 36:5 + PC 38:6) ([2]; females (F)): 26.11 ± 16.15
Δ(PC 36:5 + PC 38:6) ([2]; males (M)): 25.80 ± 20.88
Change in serum lipid response following FO supplementation (in words) [4]: more modest increase
Greater increase in O3I from baseline (relative efficacy) as compared to EPA ([3]; DHA vs EPA at the same dose level): 63% and 64%
O3I (Post) ([3]; Female, 3.0 g/day): 8.04 ± 1.34
O3I (Post) ([3]; Male, 3.0 g/day): 8.73 ± 0.97
ΔO3I [3, 5]: 4.90 ± 1.33
ΔO3I [3, 6]: 4.31 ± 1.26
ΔO3I [3, 7]: 5.57 ± 1.10
ΔO3I [3, 8]: 4.90±1.33%
Average O3I status after supplementation [3]: 6.49±1.17%

PE 38:5
Fold-change (average fold-change in ion response for serum lipid following FO supplementation to baseline) [1]: 0.49
Change in serum lipid response following FO supplementation (in words) [1]: did not exhibit increases

CCCCCCCC/C=C\CCCCCCCC(=O)O [FA 18:1, oleic acid]
Fold-change (average fold-change in ion response for serum lipid following FO supplementation to baseline) [1]: 0.83

CCCCCCCCCCCCCCCCC(=O)O [FA 17:0]
Fold-change (average fold-change in ion response for serum lipid following FO supplementation to baseline) [1]: 0.85

CCCCCCCCCCCCCCCCCC(=O)O [FA 18:0, stearic acid]
Fold-change (average fold-change in ion response for serum lipid following FO supplementation to baseline) [1]: 0.82

CCCCCCCCCCCCCC(=O)O [FA 14:0]
Fold-change (average fold-change in ion response for serum lipid following FO supplementation to baseline) [1]: 0.60

docasapentaenoic acid [FA 22:5]
Fold-change (average fold-change in ion response for serum lipid following FO supplementation to baseline) [1]: 0.57
Change in serum lipid response following FO supplementation (in words) [1]: did not respond to supplementation
